Results from patent US7335186B2 (priority 1998, dated 2008).

Conditions: 30 mg per ml solutions

## CN1CC[C@]23c4c5ccc(O)c4O[C@H]2[C@@H](O)C=C[C@H]3[C@H]1C5.O=S(=O)(O)O [Morphine sulphate]
  effectiveness of nasal solution: effective
